# Source: ChEMBL document CHEMBL3784917, “Recent Progress in Histone Demethylase Inhibitors” (J Med Chem, 2016)
# Columns and labels:
# [1] = target: T1, Lysine-specific demethylase 4A (Homo sapiens, UniProt O75164); test: Inhibition of recombinant human N-terminal His-tagged KDM4A (1 to 350 residues) expressed in Escherichia coli using methylated biotin-H3K9 substrate preincubated for 10 mins followed by substrate addition measured after 10 mins by AlphaLisa assay
# T1 sequence (O75164 whole entry): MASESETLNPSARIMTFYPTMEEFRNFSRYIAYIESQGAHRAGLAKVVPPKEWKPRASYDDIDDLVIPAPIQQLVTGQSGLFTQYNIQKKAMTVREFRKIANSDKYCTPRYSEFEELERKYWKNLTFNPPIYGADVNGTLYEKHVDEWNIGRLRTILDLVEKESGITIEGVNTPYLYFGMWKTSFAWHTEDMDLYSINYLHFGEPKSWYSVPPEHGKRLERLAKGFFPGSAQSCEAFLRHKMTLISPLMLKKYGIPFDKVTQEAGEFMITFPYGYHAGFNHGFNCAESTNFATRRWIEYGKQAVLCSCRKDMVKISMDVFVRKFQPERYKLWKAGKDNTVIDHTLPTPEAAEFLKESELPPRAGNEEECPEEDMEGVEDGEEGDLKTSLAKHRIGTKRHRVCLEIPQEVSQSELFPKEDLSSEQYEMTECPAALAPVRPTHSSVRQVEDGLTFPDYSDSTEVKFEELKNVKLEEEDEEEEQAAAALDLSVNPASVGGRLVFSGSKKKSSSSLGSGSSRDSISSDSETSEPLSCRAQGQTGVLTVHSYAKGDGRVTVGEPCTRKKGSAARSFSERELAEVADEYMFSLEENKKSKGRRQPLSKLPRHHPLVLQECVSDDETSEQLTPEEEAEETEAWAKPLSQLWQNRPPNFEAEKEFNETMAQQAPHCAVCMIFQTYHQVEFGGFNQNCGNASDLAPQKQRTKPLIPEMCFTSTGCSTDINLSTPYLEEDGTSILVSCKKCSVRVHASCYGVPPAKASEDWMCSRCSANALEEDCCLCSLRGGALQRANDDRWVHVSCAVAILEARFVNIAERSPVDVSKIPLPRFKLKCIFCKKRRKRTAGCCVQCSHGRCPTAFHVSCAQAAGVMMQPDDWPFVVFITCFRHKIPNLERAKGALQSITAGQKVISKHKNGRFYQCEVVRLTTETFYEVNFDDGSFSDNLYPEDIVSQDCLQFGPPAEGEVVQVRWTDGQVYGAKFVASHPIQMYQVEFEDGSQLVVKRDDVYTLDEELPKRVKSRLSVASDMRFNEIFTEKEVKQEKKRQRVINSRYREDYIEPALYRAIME
# [2] = target: T2, Lysine-specific demethylase 4B (Homo sapiens, UniProt O94953); test: Inhibition of human N-terminal GST-tagged KDM4B (1 to 500 residues) expressed in baculovirus infected sf9 cells using biotinylated histone H3 as substrate preincubated for 10 mins followed by substrate addition measured after 10 mins by AlphaLisa assay
# T2 sequence (O94953 whole entry): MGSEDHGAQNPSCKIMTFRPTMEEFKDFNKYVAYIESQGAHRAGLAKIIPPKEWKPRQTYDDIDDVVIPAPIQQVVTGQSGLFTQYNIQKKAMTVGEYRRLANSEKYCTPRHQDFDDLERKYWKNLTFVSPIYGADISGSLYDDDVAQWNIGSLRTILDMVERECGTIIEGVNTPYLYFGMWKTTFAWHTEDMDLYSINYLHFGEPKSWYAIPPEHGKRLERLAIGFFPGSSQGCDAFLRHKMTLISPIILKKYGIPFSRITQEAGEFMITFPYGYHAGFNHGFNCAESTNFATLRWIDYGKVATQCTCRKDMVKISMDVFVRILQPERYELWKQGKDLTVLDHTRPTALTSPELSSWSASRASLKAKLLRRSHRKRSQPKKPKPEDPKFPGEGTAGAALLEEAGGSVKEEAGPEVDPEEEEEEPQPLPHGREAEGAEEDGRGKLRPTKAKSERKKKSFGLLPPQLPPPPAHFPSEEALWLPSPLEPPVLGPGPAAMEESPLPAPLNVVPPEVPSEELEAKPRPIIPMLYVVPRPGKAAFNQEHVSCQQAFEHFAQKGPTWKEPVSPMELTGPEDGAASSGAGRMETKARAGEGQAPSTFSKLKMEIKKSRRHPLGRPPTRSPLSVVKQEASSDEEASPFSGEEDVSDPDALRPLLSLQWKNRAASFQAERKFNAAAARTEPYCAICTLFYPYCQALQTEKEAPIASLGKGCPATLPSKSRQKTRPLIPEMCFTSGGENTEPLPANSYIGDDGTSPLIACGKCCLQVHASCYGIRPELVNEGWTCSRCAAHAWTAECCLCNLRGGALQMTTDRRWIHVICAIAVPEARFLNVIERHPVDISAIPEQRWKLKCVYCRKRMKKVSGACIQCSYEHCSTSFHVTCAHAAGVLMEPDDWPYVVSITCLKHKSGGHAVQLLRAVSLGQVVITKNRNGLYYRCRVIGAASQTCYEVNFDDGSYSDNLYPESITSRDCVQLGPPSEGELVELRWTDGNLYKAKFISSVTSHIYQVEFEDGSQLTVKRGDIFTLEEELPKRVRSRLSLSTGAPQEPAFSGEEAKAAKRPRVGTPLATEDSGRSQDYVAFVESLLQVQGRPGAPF
# [3] = target: Lysine-specific demethylase 5B (Homo sapiens, UniProt Q9UGL1)
# [4] = target: Lysine-specific demethylase 3B (Homo sapiens, UniProt Q7LBC6); test: biochemical
# [5] = target: Lysine-specific demethylase 6B (Homo sapiens, UniProt O15054); test: biochemical
# Chain of Lysine-specific demethylase 6B (O15054 whole entry): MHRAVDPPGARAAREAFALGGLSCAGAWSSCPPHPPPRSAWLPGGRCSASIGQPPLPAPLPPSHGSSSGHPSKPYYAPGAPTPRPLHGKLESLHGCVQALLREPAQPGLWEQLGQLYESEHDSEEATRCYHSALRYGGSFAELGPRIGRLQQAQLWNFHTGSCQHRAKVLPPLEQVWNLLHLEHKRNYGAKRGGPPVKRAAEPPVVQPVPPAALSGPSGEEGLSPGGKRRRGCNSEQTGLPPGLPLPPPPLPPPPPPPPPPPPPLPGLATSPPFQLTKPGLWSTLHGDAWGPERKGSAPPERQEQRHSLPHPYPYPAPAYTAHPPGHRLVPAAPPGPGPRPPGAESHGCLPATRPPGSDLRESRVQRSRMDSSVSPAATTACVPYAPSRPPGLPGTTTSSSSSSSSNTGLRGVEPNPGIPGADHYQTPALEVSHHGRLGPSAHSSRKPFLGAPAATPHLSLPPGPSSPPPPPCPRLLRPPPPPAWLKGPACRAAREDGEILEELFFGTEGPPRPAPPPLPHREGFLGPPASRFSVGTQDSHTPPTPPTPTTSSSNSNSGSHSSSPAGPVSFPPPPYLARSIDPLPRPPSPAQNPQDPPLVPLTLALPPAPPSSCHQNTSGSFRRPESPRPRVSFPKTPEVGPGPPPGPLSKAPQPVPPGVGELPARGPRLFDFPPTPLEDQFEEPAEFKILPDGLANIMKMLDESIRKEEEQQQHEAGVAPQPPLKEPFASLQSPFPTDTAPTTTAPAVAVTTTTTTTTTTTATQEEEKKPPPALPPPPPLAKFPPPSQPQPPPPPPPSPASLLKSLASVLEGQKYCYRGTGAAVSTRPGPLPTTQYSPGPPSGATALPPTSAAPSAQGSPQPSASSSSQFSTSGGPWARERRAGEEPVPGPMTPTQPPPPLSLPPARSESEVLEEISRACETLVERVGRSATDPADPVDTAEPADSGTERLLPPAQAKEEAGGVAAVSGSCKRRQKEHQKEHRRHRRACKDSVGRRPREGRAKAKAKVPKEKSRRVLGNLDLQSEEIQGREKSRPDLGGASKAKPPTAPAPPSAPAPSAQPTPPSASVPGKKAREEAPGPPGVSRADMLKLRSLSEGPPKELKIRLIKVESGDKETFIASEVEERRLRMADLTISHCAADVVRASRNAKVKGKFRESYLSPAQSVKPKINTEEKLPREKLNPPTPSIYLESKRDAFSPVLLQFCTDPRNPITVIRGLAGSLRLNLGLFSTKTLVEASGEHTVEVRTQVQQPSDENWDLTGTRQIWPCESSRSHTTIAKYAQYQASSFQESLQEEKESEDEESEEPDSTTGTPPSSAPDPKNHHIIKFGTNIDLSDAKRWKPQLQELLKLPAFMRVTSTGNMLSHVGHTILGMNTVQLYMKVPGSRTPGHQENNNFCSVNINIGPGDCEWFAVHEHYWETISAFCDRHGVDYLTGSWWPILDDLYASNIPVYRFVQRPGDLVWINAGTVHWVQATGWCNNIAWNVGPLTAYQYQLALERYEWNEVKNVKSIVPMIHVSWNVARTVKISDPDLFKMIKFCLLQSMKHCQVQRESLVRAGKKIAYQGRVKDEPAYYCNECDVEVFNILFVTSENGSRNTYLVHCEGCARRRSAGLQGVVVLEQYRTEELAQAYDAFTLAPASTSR
# Chain of Lysine-specific demethylase 3B (Q7LBC6 whole entry): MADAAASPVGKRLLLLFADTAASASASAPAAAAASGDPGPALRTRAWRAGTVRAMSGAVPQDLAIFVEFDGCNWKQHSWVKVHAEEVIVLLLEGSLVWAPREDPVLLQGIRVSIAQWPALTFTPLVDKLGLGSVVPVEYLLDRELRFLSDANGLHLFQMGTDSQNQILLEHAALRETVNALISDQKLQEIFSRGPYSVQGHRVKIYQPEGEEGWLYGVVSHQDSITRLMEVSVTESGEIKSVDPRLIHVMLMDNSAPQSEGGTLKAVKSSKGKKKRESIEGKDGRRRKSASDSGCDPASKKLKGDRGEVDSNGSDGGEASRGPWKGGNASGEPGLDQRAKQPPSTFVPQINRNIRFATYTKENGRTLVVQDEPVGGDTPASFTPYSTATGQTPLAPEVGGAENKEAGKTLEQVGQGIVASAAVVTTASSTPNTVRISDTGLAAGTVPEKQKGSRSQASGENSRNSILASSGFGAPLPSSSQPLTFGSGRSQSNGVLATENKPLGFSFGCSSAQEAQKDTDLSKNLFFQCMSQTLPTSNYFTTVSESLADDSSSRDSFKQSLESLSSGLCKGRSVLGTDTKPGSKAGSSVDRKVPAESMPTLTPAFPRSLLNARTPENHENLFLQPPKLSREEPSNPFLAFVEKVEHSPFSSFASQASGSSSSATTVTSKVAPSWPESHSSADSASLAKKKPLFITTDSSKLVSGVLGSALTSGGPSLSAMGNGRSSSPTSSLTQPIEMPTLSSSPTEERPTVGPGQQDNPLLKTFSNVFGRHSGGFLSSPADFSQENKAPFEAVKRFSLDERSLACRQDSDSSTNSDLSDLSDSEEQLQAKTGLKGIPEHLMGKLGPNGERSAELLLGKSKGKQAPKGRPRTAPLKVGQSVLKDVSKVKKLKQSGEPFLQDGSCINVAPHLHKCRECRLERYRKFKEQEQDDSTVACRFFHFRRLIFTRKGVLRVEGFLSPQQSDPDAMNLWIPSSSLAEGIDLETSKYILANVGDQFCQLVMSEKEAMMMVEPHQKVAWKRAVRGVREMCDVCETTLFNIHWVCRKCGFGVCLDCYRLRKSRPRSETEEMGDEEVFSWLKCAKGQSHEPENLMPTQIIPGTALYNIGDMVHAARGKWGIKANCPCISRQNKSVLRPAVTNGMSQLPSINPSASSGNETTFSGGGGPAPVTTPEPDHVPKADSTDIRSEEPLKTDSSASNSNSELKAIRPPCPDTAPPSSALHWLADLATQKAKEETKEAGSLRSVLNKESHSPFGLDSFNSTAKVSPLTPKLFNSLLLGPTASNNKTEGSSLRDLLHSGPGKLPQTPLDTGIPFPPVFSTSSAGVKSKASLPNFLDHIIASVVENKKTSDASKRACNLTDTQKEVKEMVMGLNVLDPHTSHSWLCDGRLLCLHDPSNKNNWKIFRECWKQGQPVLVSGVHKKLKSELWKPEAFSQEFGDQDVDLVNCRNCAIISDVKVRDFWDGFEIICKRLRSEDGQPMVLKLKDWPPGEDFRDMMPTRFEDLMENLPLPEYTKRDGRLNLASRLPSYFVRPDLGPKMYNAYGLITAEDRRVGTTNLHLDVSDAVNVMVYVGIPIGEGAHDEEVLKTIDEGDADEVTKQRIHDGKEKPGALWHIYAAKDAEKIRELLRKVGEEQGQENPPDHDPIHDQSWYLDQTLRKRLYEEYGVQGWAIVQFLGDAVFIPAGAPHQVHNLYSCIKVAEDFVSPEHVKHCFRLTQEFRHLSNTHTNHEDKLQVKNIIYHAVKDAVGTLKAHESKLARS
# Chain of Lysine-specific demethylase 5B (Q9UGL1 whole entry): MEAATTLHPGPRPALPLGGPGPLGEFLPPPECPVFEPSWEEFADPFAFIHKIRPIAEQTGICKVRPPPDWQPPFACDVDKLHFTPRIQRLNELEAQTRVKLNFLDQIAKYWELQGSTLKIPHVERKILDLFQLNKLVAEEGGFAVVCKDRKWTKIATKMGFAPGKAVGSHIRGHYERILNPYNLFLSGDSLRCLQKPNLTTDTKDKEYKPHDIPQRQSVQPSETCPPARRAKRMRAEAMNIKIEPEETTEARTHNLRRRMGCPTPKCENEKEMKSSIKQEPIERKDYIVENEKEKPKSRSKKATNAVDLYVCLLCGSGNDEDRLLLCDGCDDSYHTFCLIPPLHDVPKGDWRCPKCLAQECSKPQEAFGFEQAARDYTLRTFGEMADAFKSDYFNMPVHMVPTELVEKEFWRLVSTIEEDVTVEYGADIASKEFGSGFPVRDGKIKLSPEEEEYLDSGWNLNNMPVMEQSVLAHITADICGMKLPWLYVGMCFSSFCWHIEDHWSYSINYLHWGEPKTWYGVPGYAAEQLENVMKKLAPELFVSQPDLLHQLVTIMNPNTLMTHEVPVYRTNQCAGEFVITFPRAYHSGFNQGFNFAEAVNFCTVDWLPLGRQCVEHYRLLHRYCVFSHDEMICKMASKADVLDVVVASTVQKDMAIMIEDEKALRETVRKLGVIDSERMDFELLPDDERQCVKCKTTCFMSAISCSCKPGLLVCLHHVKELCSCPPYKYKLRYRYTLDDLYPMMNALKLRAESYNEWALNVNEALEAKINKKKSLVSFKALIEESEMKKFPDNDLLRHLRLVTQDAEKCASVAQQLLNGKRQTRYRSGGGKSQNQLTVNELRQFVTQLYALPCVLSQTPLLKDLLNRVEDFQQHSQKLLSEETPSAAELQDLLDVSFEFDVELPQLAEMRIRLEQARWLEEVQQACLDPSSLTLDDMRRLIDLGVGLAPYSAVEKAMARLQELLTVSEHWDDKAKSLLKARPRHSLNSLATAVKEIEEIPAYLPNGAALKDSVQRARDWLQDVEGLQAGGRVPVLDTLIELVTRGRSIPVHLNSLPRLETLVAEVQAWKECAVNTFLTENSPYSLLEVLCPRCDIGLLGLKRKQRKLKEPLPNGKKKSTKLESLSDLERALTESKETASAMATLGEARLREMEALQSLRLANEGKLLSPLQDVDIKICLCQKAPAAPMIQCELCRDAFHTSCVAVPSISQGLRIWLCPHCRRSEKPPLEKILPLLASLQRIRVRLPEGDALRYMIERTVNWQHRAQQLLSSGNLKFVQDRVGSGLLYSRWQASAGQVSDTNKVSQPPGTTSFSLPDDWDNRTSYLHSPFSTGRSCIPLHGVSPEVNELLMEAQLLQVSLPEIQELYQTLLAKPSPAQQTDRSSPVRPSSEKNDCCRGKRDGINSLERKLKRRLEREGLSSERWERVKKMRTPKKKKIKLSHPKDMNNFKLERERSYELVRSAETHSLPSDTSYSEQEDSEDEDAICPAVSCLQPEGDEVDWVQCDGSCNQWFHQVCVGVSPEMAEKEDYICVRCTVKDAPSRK
IC50 [1],IC50 [2],IC50 [3],IC50 [4],IC50 [5],Structure (SMILES)
> 2.5 µM,> 2.5 µM,0.25 µM,> 2.5 µM,> 2.5 µM,CCN(CCN(C)C)C(=O)CNCc1cc(CNC(=O)C(F)(F)F)ccn1
> 2.5 µM,< 0.25 µM,< 0.25 µM,> 2.5 µM,> 2.5 µM,CCN(CC)CCCCNCc1cc(C=O)ccn1
< 0.1 µM,< 0.1 µM,< 0.1 µM,> 1 µM,> 1 µM,CCN(CCN(C)C)C(=O)CNCc1cc(C(=O)O)ccn1
